In PubChem BioAssay (NCI):
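Method: 48-hour compound exposure of cells in 96-well plates, five concentrations, linear interpolation of endpoints. GI50: concentration for 50% inhibition of growth. The concentration for full growth arrest is given as TGI.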

How the values were obtained:
Assay in all cases: NCI-60 cell line screen, 48 h
HCC-2998 colon = test system: HCC-2998 colon
SK-OV-3 ovarian = test system: SK-OV-3 ovarian
NCI-H460 lung = test system: NCI-H460 lung
UACC-62 melanoma = test system: UACC-62 melanoma
SW-620 colon = test system: SW-620 colon
COLO 205 colon = test system: COLO 205 colon
NCI-H226 lung = test system: NCI-H226 lung
NCI-H522 lung = test system: NCI-H522 lung
A549 NSCLC = test system: A549 NSCLC
HOP-62 NSCLC = test system: HOP-62 NSCLC

SMILES	GI50 (HCC-2998 colon)	TGI (HCC-2998 colon)	GI50 (SK-OV-3 ovarian)	TGI (SK-OV-3 ovarian)	GI50 (NCI-H460 lung)	TGI (NCI-H460 lung)	GI50 (UACC-62 melanoma)	TGI (UACC-62 melanoma)	GI50 (SW-620 colon)	TGI (SW-620 colon)	GI50 (COLO 205 colon)	TGI (COLO 205 colon)	GI50 (NCI-H226 lung)	TGI (NCI-H226 lung)	GI50 (NCI-H522 lung)	TGI (NCI-H522 lung)	GI50 (A549 NSCLC)	TGI (A549 NSCLC)	GI50 (HOP-62 NSCLC)	TGI (HOP-62 NSCLC)
O=C(CN1CCN(c2cc3c(cc2F)c(=O)c(C(=O)O)cn3C2CC2)CC1)Nc1nc(-c2ccc(Cl)cc2)cs1	5.17 µM	> 100 µM	3.24 µM	19.1 µM	3.03 µM	12.7 µM	3.66 µM	> 100 µM	3.48 µM	16.7 µM	4.82 µM	> 100 µM	5 µM	> 100 µM	3.15 µM	30.4 µM	3.75 µM	> 100 µM	4.16 µM	> 100 µM
O=C(O)c1cn(C2CC2)c2cc(N3CCN(C(=O)Nc4nc(-c5ccccc5)cs4)CC3)c(F)cc2c1=O	2.24 µM	> 100 µM	1.95 µM	7.38 µM	0.445 µM	> 100 µM	0.67 µM	8.52 µM	3.2 µM	> 100 µM	2.84 µM	9.63 µM	2.96 µM	57.5 µM	1.39 µM	6.26 µM	2.15 µM	> 100 µM	2.67 µM	82.4 µM
CC1=CC(=O)C(C(C)C)=CC1=Nc1cc(Br)c(O)c(Br)c1	3.56 µM	13 µM	3.45 µM	15.9 µM	3.53 µM	14.4 µM	2.86 µM	13.1 µM	4.18 µM	15.4 µM	19.2 µM	35.1 µM	3.87 µM	19.3 µM	4.42 µM	18 µM	4.98 µM	> 100 µM	6.29 µM	45.2 µM
CCC/C=C1\CCC(CN(C)C)C1=O (stereo not given)	–	29.5 µM	–	> 56.7 µM	–	> 63.2 µM	–	28.2 µM	–	11.6 µM	–	10.7 µM	–	35.1 µM	–	3.87 µM	–	> 62.2 µM	–	29.2 µM
O=[N+]([O-])c1ccc(Cl)c(C2CC(c3cccc4ccccc34)=Nc3ccccc3S2)c1 (stereo not given)	–	> 100 µM	–	> 100 µM	–	> 100 µM	–	59 µM	–	> 66.7 µM	–	> 100 µM	–	> 67.1 µM	–	43.9 µM	–	> 100 µM	–	> 100 µM
COc1cc2c(cc1OC)C(Sc1ccc(SC)cc1)c1c(nc(N)c(C#N)c1N)O2 (stereo not given)	1.8 µM	3.28 µM	1.88 µM	3.31 µM	2.08 µM	4.49 µM	1.23 µM	2.51 µM	1.92 µM	3.97 µM	1.71 µM	3.41 µM	1.64 µM	3.04 µM	1.64 µM	3.03 µM	2.05 µM	3.68 µM	1.78 µM	3.26 µM
NC(=O)c1c([N+](=O)[O-])cc(C(F)(F)F)cc1[N+](=O)[O-]	–	> 100 µM	–	> 100 µM	–	> 100 µM	–	> 100 µM	–	> 100 µM	–	62.7 µM	–	> 100 µM	–	> 100 µM	–	> 100 µM	–	> 100 µM
S=c1[nH]nc(Cc2ccccc2)c(=S)[nH]1	–	> 71.8 µM	–	> 100 µM	–	> 93.7 µM	–	> 50.1 µM	–	> 100 µM	–	> 100 µM	–	> 100 µM	–	> 100 µM	–	> 100 µM	–	> 100 µM
CCOc1cc(Br)c(C(C)NC(=O)c2cccc(OC)c2)cc1OCC (stereo not given)	33.7 µM	> 100 µM	23.1 µM	> 100 µM	6.02 µM	> 81.5 µM	6.61 µM	> 100 µM	4.6 µM	> 100 µM	8.28 µM	37.9 µM	21.4 µM	> 100 µM	6.83 µM	54.4 µM	10.8 µM	> 100 µM	10.6 µM	> 100 µM
Cc1nnc2c3nnc(C)n3c3ccccc3n12	–	> 100 µM	–	> 100 µM	–	> 100 µM	–	> 100 µM	–	> 100 µM	–	> 100 µM	–	> 100 µM	–	> 100 µM	–	> 100 µM	–	> 100 µM
O=C(CC1(O)C(=O)Nc2ccc(Br)cc21)c1ccc(Cl)cc1Cl (stereo not given)	–	> 100 µM	–	> 100 µM	–	> 100 µM	–	33.7 µM	–	> 100 µM	–	> 100 µM	–	> 100 µM	–	70.5 µM	–	> 100 µM	–	> 100 µM
CCC(c1ccc(OC)cc1)C(CC)c1ccc(O)c(CN2CCN(C)CC2)c1 (stereo not given)	2.15 µM	4.62 µM	13.8 µM	29.2 µM	3.04 µM	8.2 µM	1.99 µM	4.16 µM	3.15 µM	10 µM	1.73 µM	3.42 µM	12.4 µM	30.8 µM	4.74 µM	17 µM	8.26 µM	22.8 µM	11 µM	26.2 µM
FC(F)(F)c1ccc(-c2cnc(-n3cc(COCCN4CCCCC4)nn3)nc2NC2CCCCCC2)cc1	3.93 µM	7.44 µM	4.04 µM	7.62 µM	4.57 µM	8.84 µM	3.88 µM	7.6 µM	3.79 µM	7.95 µM	3.86 µM	8.57 µM	3.54 µM	7.83 µM	3.93 µM	7.99 µM	4.16 µM	8.18 µM	4.15 µM	8.64 µM
CC(=O)c1c(CN(C)c2ccccc2)n([O-])c2ccccc2[n+]1=O	30.9 µM	> 100 µM	31.8 µM	70 µM	33.6 µM	> 100 µM	23.9 µM	83.8 µM	21 µM	> 100 µM	16.2 µM	32.9 µM	20.2 µM	67.5 µM	25.6 µM	69.9 µM	47.1 µM	> 100 µM	30.7 µM	> 100 µM
Cc1cc(-c2ccccc2)nc(Nc2nc3ccccc3o2)n1	–	> 100 µM	–	> 100 µM	–	> 100 µM	–	> 100 µM	–	> 100 µM	–	> 100 µM	–	> 100 µM	–	> 100 µM	–	> 100 µM	–	> 100 µM
CCOc1ccc2c(c1)[n+]([O-])c(-c1ccc(Br)cc1)c(N)[n+]2[O-]	–	> 100 µM	–	> 100 µM	–	> 100 µM	–	> 100 µM	–	> 100 µM	–	52.4 µM	–	> 100 µM	–	33.7 µM	–	> 100 µM	–	> 100 µM
